Source: ChEMBL document CHEMBL3885861, “Open TG-GATES”

Organism: Rattus norvegicus
Experiment: Open TG-GATES - Regimen: Daily Repeat
Assay type: toxicity, organism-based, Sprague-Dawley
Design: regimen Daily Repeat, gender Male, age 6 weeks
Conditions: in vivo, po, 0 mg/kg, route gavage, dose level Control; for APTT / Bas / Eos / Fbg / Hb / Ht / Lym / MCH / MCHC / MCV / Mono / Neu / PT / Plat / RBC / Ret / WBC: tissue Blood; for KIDNEY_L / KIDNEY_R / KIDNEY_TOTAL: tissue Kidney; for LIVER: tissue Liver; for A/G / ALP / ALT / AST / BUN / CRE / Ca / Cl / DBIL / GLC / IP / K / LDH / Na / PL / RALB / TBIL / TC / TG / TP / gamma-GTP: tissue Plasma

`NC(=O)N/N=C/c1ccc([N+](=O)[O-])o1` [NITROFURAZONE] was tested, and the TERMINAL_BW (72 h, time 3 day) was 218.5 g, the APTT (72 h, time 3 day) was 14.6 s and the Bas (72 h, time 3 day) was 0%. The Eos (72 h, time 3 day) was 0.6%, the Fbg (72 h, time 3 day) was 279.4 mg/dL and the Hb (72 h, time 3 day) was 12.9 g/dL. It also gave a Ht (72 h, time 3 day) of 39.6%, a Lym (72 h, time 3 day) of 81% and an MCH (72 h, time 3 day) of 21 pg. For the same molecule, the MCHC (72 h, time 3 day) was 32.6%, the MCV (72 h, time 3 day) was 64.4 fL and the Mono (72 h, time 3 day) was 2.6%. It also gave a Neu (72 h, time 3 day) of 15%, a PT (72 h, time 3 day) of 14.5 s and a Plat (72 h, time 3 day) of 111.2 x10_4/uL. It also gave an RBC (72 h, time 3 day) of 614.6 x10_4/ul, a Ret (72 h, time 3 day) of 8.9% and a WBC (72 h, time 3 day) of 76.9 x10_2/uL. It also gave a KIDNEY_L (72 h, time 3 day) of 0.9 g, a KIDNEY_R (72 h, time 3 day) of 0.9 g and a KIDNEY_TOTAL (72 h, time 3 day) of 1.7 g. For the same molecule, the LIVER (72 h, time 3 day) was 9.8 g, the A/G (72 h, time 3 day) was 0.9 and the ALP (72 h, time 3 day) was 2147 IU/L. The ALT (72 h, time 3 day) was 51.2 IU/L, the AST (72 h, time 3 day) was 78.2 IU/L and the BUN (72 h, time 3 day) was 16 mg/dL. The CRE (72 h, time 3 day) was 0.2 mg/dL, the Ca (72 h, time 3 day) was 11.4 mg/dL and the Cl (72 h, time 3 day) was 106.2 meq/L. For the same molecule, the DBIL (72 h, time 3 day) was 0.016 mg/dL, the GLC (72 h, time 3 day) was 178.2 mg/dL and the IP (72 h, time 3 day) was 7.9 mg/dL. For the same molecule, the K (72 h, time 3 day) was 4.4 meq/L, the LDH (72 h, time 3 day) was 79 IU/L and the Na (72 h, time 3 day) was 141.6 meq/L. For the same molecule, the PL (72 h, time 3 day) was 161.2 mg/dL, the RALB (72 h, time 3 day) was 2.6 g/dL and the TBIL (72 h, time 3 day) was 0.046 mg/dL. For the same molecule, the TC (72 h, time 3 day) was 92.4 mg/dL, the TG (72 h, time 3 day) was 100.8 mg/dL and the TP (72 h, time 3 day) was 5.6 g/dL. The gamma-GTP (72 h, time 3 day) was 1 IU/L, the TERMINAL_BW ([…], time 7 day) was 259.3 g and the TERMINAL_BW ([…], time 14 day) was 324.7 g. The TERMINAL_BW ([…], time 28 day) was 406 g, the APTT ([…], time 7 day) was 16.9 s and the Bas ([…], time 7 day) was 0.2%. For the same molecule, the Eos ([…], time 7 day) was 1%, the Fbg ([…], time 7 day) was 268 mg/dL and the Hb ([…], time 7 day) was 13.4 g/dL. The Ht ([…], time 7 day) was 39.9%, the Lym ([…], time 7 day) was 75% and the MCH ([…], time 7 day) was 21.1 pg. For the same molecule, the MCHC ([…], time 7 day) was 33.5%, the MCV ([…], time 7 day) was 62.8 fL and the Mono ([…], time 7 day) was 3.2%. The Neu ([…], time 7 day) was 20.2%, the PT ([…], time 7 day) was 14.4 s and the Plat ([…], time 7 day) was 112.6 x10_4/uL. For the same molecule, the RBC ([…], time 7 day) was 636.4 x10_4/ul, the Ret ([…], time 7 day) was 7% and the WBC ([…], time 7 day) was 96.1 x10_2/uL. The APTT ([…], time 14 day) was 14.3 s, the Bas ([…], time 14 day) was 0.2% and the Eos ([…], time 14 day) was 0.8%. For the same molecule, the Fbg ([…], time 14 day) was 303 mg/dL, the Hb ([…], time 14 day) was 13.6 g/dL and the Ht ([…], time 14 day) was 41.4%. The Lym ([…], time 14 day) was 77.8%, the MCH ([…], time 14 day) was 20.7 pg and the MCHC ([…], time 14 day) was 32.8%. For the same molecule, the MCV ([…], time 14 day) was 63.2 fL, the Mono ([…], time 14 day) was 2% and the Neu ([…], time 14 day) was 18.2%. The PT ([…], time 14 day) was 14.4 s, the Plat ([…], time 14 day) was 121.6 x10_4/uL and the RBC ([…], time 14 day) was 657.2 x10_4/ul. The Ret ([…], time 14 day) was 5.7%, the WBC ([…], time 14 day) was 91.3 x10_2/uL and the APTT ([…], time 28 day) was 16.2 s. It also gave a Bas ([…], time 28 day) of 0%, an Eos ([…], time 28 day) of 1.2% and a Fbg ([…], time 28 day) of 275.6 mg/dL. The Hb ([…], time 28 day) was 15 g/dL, the Ht ([…], time 28 day) was 44.5% and the Lym ([…], time 28 day) was 77%. It also gave an MCH ([…], time 28 day) of 19.5 pg, an MCHC ([…], time 28 day) of 33.7% and an MCV ([…], time 28 day) of 58 fL. For the same molecule, the Mono ([…], time 28 day) was 1.8%, the Neu ([…], time 28 day) was 19.4% and the PT ([…], time 28 day) was 14.9 s. For the same molecule, the Plat ([…], time 28 day) was 105 x10_4/uL, the RBC ([…], time 28 day) was 767.2 x10_4/ul and the Ret ([…], time 28 day) was 2.6%. The WBC ([…], time 28 day) was 74.7 x10_2/uL, the KIDNEY_L ([…], time 7 day) was 1.1 g and the KIDNEY_R ([…], time 7 day) was 1.1 g. It also gave a KIDNEY_TOTAL ([…], time 7 day) of 2.1 g, a KIDNEY_L ([…], time 14 day) of 1.3 g and a KIDNEY_R ([…], time 14 day) of 1.2 g. It also gave a KIDNEY_TOTAL ([…], time 14 day) of 2.5 g, a KIDNEY_L ([…], time 28 day) of 1.5 g and a KIDNEY_R ([…], time 28 day) of 1.3 g. For the same molecule, the KIDNEY_TOTAL ([…], time 28 day) was 2.8 g, the LIVER ([…], time 7 day) was 12.2 g and the LIVER ([…], time 14 day) was 15.1 g. It also gave an LIVER ([…], time 28 day) of 16.8 g, an A/G ([…], time 7 day) of 0.8 and an ALP ([…], time 7 day) of 1832.4 IU/L. It also gave an ALT ([…], time 7 day) of 45.8 IU/L, an AST ([…], time 7 day) of 69 IU/L and a BUN ([…], time 7 day) of 15.6 mg/dL. For the same molecule, the CRE ([…], time 7 day) was 0.2 mg/dL, the Ca ([…], time 7 day) was 11.2 mg/dL and the Cl ([…], time 7 day) was 104 meq/L. The DBIL ([…], time 7 day) was 0.022 mg/dL, the GLC ([…], time 7 day) was 196.2 mg/dL and the IP ([…], time 7 day) was 7.5 mg/dL. For the same molecule, the K ([…], time 7 day) was 3.6 meq/L, the LDH ([…], time 7 day) was 69 IU/L and the Na ([…], time 7 day) was 141.6 meq/L. For the same molecule, the PL ([…], time 7 day) was 146.4 mg/dL, the RALB ([…], time 7 day) was 2.6 g/dL and the TBIL ([…], time 7 day) was 0.054 mg/dL. The TC ([…], time 7 day) was 76.2 mg/dL, the TG ([…], time 7 day) was 93.2 mg/dL and the TP ([…], time 7 day) was 5.6 g/dL. The gamma-GTP ([…], time 7 day) was 1 IU/L, the A/G ([…], time 14 day) was 0.8 and the ALP ([…], time 14 day) was 1410 IU/L. The ALT ([…], time 14 day) was 43.4 IU/L, the AST ([…], time 14 day) was 65.6 IU/L and the BUN ([…], time 14 day) was 17.4 mg/dL. The CRE ([…], time 14 day) was 0.2 mg/dL, the Ca ([…], time 14 day) was 11 mg/dL and the Cl ([…], time 14 day) was 105.4 meq/L. It also gave a DBIL ([…], time 14 day) of 0.012 mg/dL, a GLC ([…], time 14 day) of 195.4 mg/dL and an IP ([…], time 14 day) of 7.5 mg/dL. It also gave a K ([…], time 14 day) of 4 meq/L, an LDH ([…], time 14 day) of 70 IU/L and a Na ([…], time 14 day) of 142.8 meq/L. It also gave a PL ([…], time 14 day) of 159.8 mg/dL, an RALB ([…], time 14 day) of 2.6 g/dL and a TBIL ([…], time 14 day) of 0.046 mg/dL. For the same molecule, the TC ([…], time 14 day) was 79.2 mg/dL, the TG ([…], time 14 day) was 119 mg/dL and the TP ([…], time 14 day) was 5.8 g/dL. The gamma-GTP ([…], time 14 day) was 1.2 IU/L, the A/G ([…], time 28 day) was 0.8 and the ALP ([…], time 28 day) was 1109.8 IU/L. It also gave an ALT ([…], time 28 day) of 38 IU/L, an AST ([…], time 28 day) of 62.4 IU/L and a BUN ([…], time 28 day) of 16.6 mg/dL. It also gave a CRE ([…], time 28 day) of 0.2 mg/dL, a Ca ([…], time 28 day) of 10.9 mg/dL and a Cl ([…], time 28 day) of 104 meq/L. For the same molecule, the DBIL ([…], time 28 day) was 0.014 mg/dL, the GLC ([…], time 28 day) was 192 mg/dL and the IP ([…], time 28 day) was 6.9 mg/dL. The K ([…], time 28 day) was 3.4 meq/L, the LDH ([…], time 28 day) was 61.2 IU/L and the Na ([…], time 28 day) was 145.2 meq/L. The PL ([…], time 28 day) was 139.6 mg/dL, the RALB ([…], time 28 day) was 2.7 g/dL and the TBIL ([…], time 28 day) was 0.068 mg/dL. For the same molecule, the TC ([…], time 28 day) was 60.6 mg/dL, the TG ([…], time 28 day) was 145.4 mg/dL and the TP ([…], time 28 day) was 6.1 g/dL. For the same molecule, the gamma-GTP ([…], time 28 day) was 0.8 IU/L.
